Measurements from patent publication US6737383B1, “Herbicidal oxadiazolidines” (priority 1999, dated 2004).

Key:
blackgrass = assay: Test B pre/postemergence blackgrass; type: in vivo, Alopecurus myosuroides
Procedure, shortened: (§1)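 Test chemicals in a non-phytotoxic solvent mixture with surfactant were sprayed preemergence onto planted seeds and postemergence onto plants 2 to 18 cm tall (1- to 4-leaf stage). After twelve to sixteen days in a greenhouse, injury was visually rated against untreated controls from 0 (no effect) to 10 (complete control).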

surinam grass = assay: Test B pre/postemergence surinam grass; type: in vivo, Brachiaria decumbens
Procedure, shortened: as §1

cocklebur = assay: Test B pre/postemergence cocklebur; type: in vivo, Xanthium strumarium
Procedure, shortened: as §1

corn = assay: Test B pre/postemergence corn; type: in vivo, Zea mays
Procedure, shortened: as §1

crabgrass = assay: Test B pre/postemergence crabgrass; type: in vivo, Digitaria sanguinalis
Procedure, shortened: as §1

giant foxtail = assay: Test B pre/postemergence giant foxtail; type: in vivo, Setaria faberii
Procedure, shortened: as §1

morningglory = assay: Test B pre/postemergence morningglory; type: in vivo, Ipomoea hederacea
Procedure, shortened: as §1

pigweed = assay: Test B pre/postemergence pigweed; type: in vivo, Amaranthus retroflexus
Procedure, shortened: as §1

rape = assay: Test B pre/postemergence rape; type: in vivo, Brassica napus
Procedure, shortened: as §1

soybean = assay: Test B pre/postemergence soybean; type: in vivo, Glycine max
Procedure, shortened: as §1

sugar beet = assay: Test B pre/postemergence sugar beet; type: in vivo, Beta vulgaris
Procedure, shortened: as §1

velvetleaf = assay: Test B pre/postemergence velvetleaf; type: in vivo, Abutilon theophrasti
Procedure, shortened: as §1

wheat = assay: Test B pre/postemergence wheat; type: in vivo, Triticum aestivum
Procedure, shortened: as §1

wild oat = assay: Test B pre/postemergence wild oat; type: in vivo, Avena fatua
Procedure, shortened: as §1

rice = assay: Test B flood test rice; type: in vivo, Oryza sativa; conditions: for Rice plant response rating: scale of 0 to 10 where 0 is no effect and 10 is complete control
Procedure, shortened: (§2)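 Flood test on plants grown to the 2-leaf stage; treated plants kept in greenhouse twelve to sixteen days, then visually rated against controls on a 0 (no effect) to 10 (complete control) scale.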

smallflower flatsedge = assay: Test B flood test smallflower flatsedge; type: in vivo, Cyperus difformis; conditions: for S. Flatsedge plant response rating: scale of 0 to 10 where 0 is no effect and 10 is complete control
Procedure, shortened: as §2

[1] = Postemergence, Rate 125 g/ha, scale 0 to 10, 0 is no effect, 10 is complete control
[2] = Postemergence, Rate 250 g/ha, scale 0 to 10, 0 is no effect, 10 is complete control
[3] = Postemergence, Rate 500 g/ha, scale of 0 to 10 where 0 is no effect and 10 is complete control
[4] = Preemergence, Rate 62 g/ha, scale 0 to 10 (0 no effect, 10 complete control)
[5] = Preemergence, Rate 125 g/ha, scale of 0 to 10 where 0 is no effect and 10 is complete control
[6] = Preemergence, Rate 250 g/ha, scale of 0 to 10 where 0 is no effect and 10 is complete control
[7] = Preemergence, Rate 500 g/ha, scale 0 to 10, 0 is no effect, 10 is complete control
[8] = Rate 62 g/ha, Postemergence, scale of 0 to 10 where 0 is no effect and 10 is complete control
[9] = Preemergence, Rate 250 g/ha, scale 0 to 10, 0 is no effect, 10 is complete control
[10] = Postemergence section (flood test species), Rate 500 g/ha
[11] = Rate 62 g/ha, Postemergence (flood test species)
[12] = flood test species, listed under Postemergence, Rate 250 g/ha, scale 0 to 10, 0 is no effect, 10 is complete control

CC(=O)C(C)n1c(=O)on(C(=O)N(c2ccc(F)cc2)C(C)C)c1=O (centres unmarked) [Compound 400]
10: Crabgrass plant response rating (crabgrass; [9]) | Crabgrass plant response rating (crabgrass; [7]) | Giant foxtail plant response rating (giant foxtail; [9]) | Giant foxtail plant response rating (giant foxtail; [7])
5: Giant foxtail plant response rating (giant foxtail; [8])
2: Plant response rating, B. signalgrass (surinam grass; [1]) | B. signalgrass plant response rating (surinam grass; [6]) | Corn plant response rating (corn; [9]) | Corn plant response rating (corn; [7]) | Sugarbeets plant response rating (sugar beet; [9]) | Velvetleaf plant response rating (velvetleaf; [7])
3: Plant response rating, B. signalgrass (surinam grass; [2]) | Plant response rating, Morningglory (morningglory; [2]) | Plant response rating, Redroot pigweed (pigweed; [4])
6: Plant response rating, Crabgrass (crabgrass; [2]) | Plant response rating, Crabgrass (crabgrass; [4]) | Morningglory plant response rating (morningglory; [3]) | Redroot pigweed plant response rating (pigweed; [9]) | Redroot pigweed plant response rating (pigweed; [7])
9: Crabgrass plant response rating (crabgrass; [3]) | Plant response rating, Crabgrass (crabgrass; [5]) | Plant response rating, Giant foxtail (giant foxtail; [2]) | Giant foxtail plant response rating (giant foxtail; [3]) | Plant response rating, Giant foxtail (giant foxtail; [4]) | Plant response rating, Giant foxtail (giant foxtail; [5])
0: Plant response rating, Blackgrass (blackgrass; [4]) | Plant response rating, Blackgrass (blackgrass; [5]) | Blackgrass plant response rating (blackgrass; [6]) | Blackgrass plant response rating (blackgrass; [7]) | Blackgrass plant response rating (blackgrass; [8]) | Plant response rating, B. signalgrass (surinam grass; [4]) | Plant response rating, B. signalgrass (surinam grass; [5]) | B. signalgrass plant response rating (surinam grass; [8]) | Plant response rating, Cocklebur (cocklebur; [1]) | Plant response rating, Cocklebur (cocklebur; [2]) | Cocklebur plant response rating (cocklebur; [3]) | Plant response rating, Cocklebur (cocklebur; [4]) | Plant response rating, Cocklebur (cocklebur; [5]) | Cocklebur plant response rating (cocklebur; [9]) | Cocklebur plant response rating (cocklebur; [7]) | Cocklebur plant response rating (cocklebur; [8]) | Plant response rating, Corn (corn; [1]) | Plant response rating, Corn (corn; [2]) | Corn plant response rating (corn; [3]) | Plant response rating, Corn (corn; [4]) | Plant response rating, Corn (corn; [5]) | Corn plant response rating (corn; [8]) | Crabgrass plant response rating (crabgrass; [8]) | Plant response rating, Morningglory (morningglory; [4]) | Plant response rating, Morningglory (morningglory; [5]) | Morningglory plant response rating (morningglory; [9]) | Morningglory plant response rating (morningglory; [7]) | Morningglory plant response rating (morningglory; [8]) | Plant response rating, Redroot pigweed (pigweed; [2]) | Redroot pigweed plant response rating (pigweed; [3]) | Redroot pigweed plant response rating (pigweed; [8]) | Plant response rating, Rape (rape; [2]) | Rape plant response rating (rape; [3]) | Plant response rating, Rape (rape; [4]) | Plant response rating, Rape (rape; [5]) | Rape plant response rating (rape; [9]) | Rape plant response rating (rape; [7]) | Rape plant response rating (rape; [8]) | Plant response rating, Soybean (soybean; [4]) | Plant response rating, Soybean (soybean; [5]) | Soybean plant response rating (soybean; [9]) | Soybean plant response rating (soybean; [7]) | Plant response rating, Sugarbeets (sugar beet; [2]) | Sugarbeets plant response rating (sugar beet; [3]) | Plant response rating, Sugarbeets (sugar beet; [4]) | Plant response rating, Sugarbeets (sugar beet; [5]) | Sugarbeets plant response rating (sugar beet; [8]) | Plant response rating, Velvetleaf (velvetleaf; [2]) | Velvetleaf plant response rating (velvetleaf; [3]) | Plant response rating, Velvetleaf (velvetleaf; [4]) | Plant response rating, Velvetleaf (velvetleaf; [5]) | Velvetleaf plant response rating (velvetleaf; [9]) | Velvetleaf plant response rating (velvetleaf; [8]) | Wheat plant response rating (wheat; [3]) | Plant response rating, Wheat (wheat; [4]) | Plant response rating, Wheat (wheat; [5]) | Wheat plant response rating (wheat; [9]) | Wheat plant response rating (wheat; [7]) | Wheat plant response rating (wheat; [8]) | Wild oats plant response rating (wild oat; [3]) | Plant response rating, Wild oats (wild oat; [4]) | Plant response rating, Wild oats (wild oat; [5]) | Wild oats plant response rating (wild oat; [9]) | Wild oats plant response rating (wild oat; [7]) | Wild oats plant response rating (wild oat; [8]) | Rice plant response rating (rice; [10]) | Rice plant response rating (rice; [11]) | Plant response rating, Rice (rice; [12]) | S. Flatsedge plant response rating (smallflower flatsedge; [10]) | S. Flatsedge plant response rating (smallflower flatsedge; [11]) | Plant response rating, S. Flatsedge (smallflower flatsedge; [12])
1: Soybean plant response rating (soybean; [8])
4: Plant response rating, Blackgrass (blackgrass; [1]) | B. signalgrass plant response rating (surinam grass; [3]) | B. signalgrass plant response rating (surinam grass; Preemergence, Rate 500 g/ha, scale of 0 to 10 where 0 is no effect and 10 is complete control) | Plant response rating, Redroot pigweed (pigweed; [5]) | Plant response rating, Soybean (soybean; [2]) | Soybean plant response rating (soybean; [3]) | Sugarbeets plant response rating (sugar beet; [7])
8: Plant response rating, Blackgrass (blackgrass; [2]) | Blackgrass plant response rating (blackgrass; [3]) | Plant response rating, Giant foxtail (giant foxtail; [1])
